Reference: ChEMBL document CHEMBL1126344, “Substituted penta- and hexapeptides as potent inhibitors of herpes simplex virus type 2 ribonucleotide reductase” (Bioorg Med Chem Lett, 1992)
Non-standard residues stand in square brackets, D forms with d. Residues, ends and D or L forms follow the SMILES beside them. *: point of attachment. Dibenzylacetyl = O=C(C(Cc1ccccc1)Cc1ccccc1)*; NMeY = CN[C@@H](Cc1ccc(O)cc1)C(=O)O; tBuAla = CC(C)(C)C[C@H](N)C(=O)O; AllylGly = C=CC[C@H](N)C(=O)O; Pyrrolidide = C1CCN(*)C1; NHBn = c1ccc(CN*)cc1

Columns and labels:
Human alphaherpesvirus 2 = assay: Relative potency to that of YAGAVVNDL against Herpes Simplex Virus type 2 ribonucleotide reductase
[1] = The compound was tested in vitro for inhibitory activity against Herpes Simplex Virus type 2 ribonucleotide reductase; set-up: species or system Human alphaherpesvirus 2
[2] = Inhibitory activity of YAGAVVNDL against Herpes Simplex Virus type 2 (HSV-2) ribonucleotide reductase determined as control; set-up: species or system Human alphaherpesvirus 2

SMILES | Relative potency (Human alphaherpesvirus 2) | IC50 [1] [µM] | IC50 [2] [µM]
CC(C)C[C@H](NC(=O)[C@H](CC(=O)O)NC(=O)[C@H](CC(N)=O)NC(=O)[C@@H](NC(=O)[C@@H](NC(=O)CCc1ccc(O)cc1)C(C)C)C(C)C)C(=O)O | 1 | 21 | 20
CC(C)C[C@H](NC(=O)[C@H](CC(=O)O)NC(=O)[C@H](CC(N)=O)NC(=O)[C@@H](NC(=O)[C@@H](NC(=O)C(Cc1ccc(O)cc1)Cc1ccc(O)cc1)C(C)C)C(C)C)C(=O)O | 5.4 | 6.5 | 35
CC(C)C[C@H](NC(=O)[C@H](CC(=O)O)NC(=O)[C@H](CC(N)=O)NC(=O)[C@@H](NC(=O)[C@@H](NC(=O)C(C)(C)C)C(C)C)C(C)C)C(=O)O | 0.24 | 21 | 5
CC(C)C[C@H](NC(=O)[C@H](CC(=O)O)NC(=O)[C@H](CC(=O)NCc1ccccc1)NC(=O)[C@@H](NC(=O)[C@@H](NC(=O)C(Cc1ccccc1)Cc1ccccc1)C(C)C)C(C)C)C(=O)O (Dibenzylacetyl-VVD(NHBn)DL-OH) | 55 | 0.4 | 22
CC(C)[C@H](NC(=O)C(Cc1ccccc1)Cc1ccccc1)C(=O)N[C@H](C(=O)N[C@@H](CC(=O)NCc1ccccc1)C(=O)N[C@@H](CC(=O)O)C(=O)N[C@@H](CC(C)(C)C)C(=O)O)C(C)C (Dibenzylacetyl-VVD(NHBn)D[tBuAla]-OH) | 50 | 0.2 | 10
CC(C)[C@H](NC(=O)C(Cc1ccccc1)Cc1ccccc1)C(=O)N[C@H](C(=O)N[C@@H](CC(=O)N(C)C)C(=O)N[C@@H](CC(=O)O)C(=O)N[C@@H](CC(C)(C)C)C(=O)O)C(C)C (Dibenzylacetyl-VVD(NMe2)D[tBuAla]-OH) | 70 | 0.3 | 21
CC(C)C[C@H](NC(=O)[C@H](CC(=O)O)NC(=O)[C@H](CC(=O)N(C)C)NC(=O)[C@@H](NC(=O)[C@@H](NC(=O)[C@@H](N)CC(=O)O)C(C)C)C(C)C)C(=O)O (H-DVVD(NMe2)DL-OH) | 63 | 0.15 | 9.5
CC(C)C[C@H](NC(=O)[C@H](CC(=O)O)NC(=O)[C@H](CC(=O)N1CCCC1)NC(=O)[C@@H](NC(=O)[C@@H](NC(=O)[C@@H](N)CC(=O)O)C(C)C)C(C)C)C(=O)O (H-DVVD(Pyrrolidide)DL-OH) | 32 | 1 | 32
C=CC[C@H](NC(=O)[C@H](CC(=O)O)NC(=O)[C@H](CC(N)=O)NC(=O)[C@@H](NC(=O)[C@@H](NC(=O)[C@@H](N)Cc1ccc(O)cc1)C(C)C)C(C)C)C(=O)O (H-YVVND[AllylGly]-OH) |  | > 430 | 22
CN[C@@H](Cc1ccc(O)cc1)C(=O)N[C@H](C(=O)N[C@H](C(=O)N[C@@H](CC(N)=O)C(=O)N[C@@H](CC(=O)O)C(=O)N[C@@H](CC(C)C)C(=O)O)C(C)C)C(C)C (H-[NMeY]VVNDL-OH) |  |  | 15
CC(C)C[C@H](NC(=O)[C@H](CC(=O)O)NC(=O)[C@H](CC(N)=O)NC(=O)[C@@H](NC(=O)[C@@H](NC(=O)[C@@](C)(N)Cc1ccc(O)cc1)C(C)C)C(C)C)C(=O)O (stereo in doubt; form 1) [listing 1 of 2 here] |  | 58 | 30
CC(C)C[C@H](NC(=O)[C@H](CC(=O)O)NC(=O)[C@H](CC(N)=O)NC(=O)[C@@H](NC(=O)[C@@H](NC(=O)[C@@](C)(N)Cc1ccc(O)cc1)C(C)C)C(C)C)C(=O)O (stereo in doubt; form 1) [listing 2 of 2 here] | 0.52 |  | 
CC(C)C[C@H](NC(=O)[C@H](CC(=O)O)NC(=O)[C@H](CC(N)=O)NC(=O)[C@@H](NC(=O)[C@@H](NC(=O)[C@@](C)(N)Cc1ccc(O)cc1)C(C)C)C(C)C)C(=O)O (stereo in doubt; form 2) [listing 1 of 2 here] |  | 120 | 
CC(C)C[C@H](NC(=O)[C@H](CC(=O)O)NC(=O)[C@H](CC(N)=O)NC(=O)[C@@H](NC(=O)[C@@H](NC(=O)[C@@](C)(N)Cc1ccc(O)cc1)C(C)C)C(C)C)C(=O)O (stereo in doubt; form 2) [listing 2 of 2 here] | 0.25 |  | 

Now from value to compound:

Relative potency (Human alphaherpesvirus 2) | IC50 [1] [µM] | IC50 [2] [µM] | SMILES
6 | 10 | 60 | CC(C)C[C@H](NC(=O)[C@H](CC(=O)O)NC(=O)[C@H](CC(N)=O)NC(=O)[C@@H](NC(=O)[C@@H](NC(=O)CC(c1ccccc1)c1ccccc1)C(C)C)C(C)C)C(=O)O
0.17 | 30 | 5 | CC(C)C[C@H](NC(=O)[C@H](CC(=O)O)NC(=O)[C@H](CC(N)=O)NC(=O)[C@@H](NC(=O)[C@@H](NC(=O)C(C)C)C(C)C)C(C)C)C(=O)O
38 | 0.5 | 19 | CC(C)C[C@H](NC(=O)[C@H](CC(=O)O)NC(=O)[C@H](CC(N)=O)NC(=O)[C@@H](NC(=O)[C@@H](NC(=O)C(Cc1ccccc1)Cc1ccccc1)C(C)C)C(C)C)C(=O)O
1.5 | 11 | 17 | CC(C)C[C@H](NC(=O)[C@H](CC(=O)O)NC(=O)[C@H](CC(N)=O)NC(=O)[C@@H](NC(=O)[C@@H](NC(=O)CCc1ccccc1)C(C)C)C(C)C)C(=O)O
2.2 | 11 | 24 | CC(C)C[C@H](NC(=O)[C@H](CC(=O)O)NC(=O)[C@H](CC(N)=O)NC(=O)[C@@H](NC(=O)[C@@H](NC(=O)N(Cc1ccccc1)Cc1ccccc1)C(C)C)C(C)C)C(=O)O
0.14 | 170 | 24 | CC(C)C[C@H](NC(=O)[C@H](CC(=O)O)NC(=O)[C@H](CC(N)=O)NC(=O)[C@@H](NC(=O)[C@@H](NC(=O)N(c1ccccc1)c1ccccc1)C(C)C)C(C)C)C(=O)O
0.27 | 90 | 24 | CC(C)C[C@H](NC(=O)[C@H](CC(=O)O)NC(=O)[C@H](CC(N)=O)NC(=O)[C@@H](NC(=O)[C@@H](NC(=O)C(c1ccccc1)c1ccccc1)C(C)C)C(C)C)C(=O)O
120 | 0.1 | 12 | CC(C)[C@H](NC(=O)C(Cc1ccccc1)Cc1ccccc1)C(=O)N[C@H](C(=O)N[C@@H](CC(N)=O)C(=O)N[C@@H](CC(=O)O)C(=O)N[C@@H](CC(C)(C)C)C(=O)O)C(C)C (Dibenzylacetyl-VVND[tBuAla]-OH)
14 | 2 | 27 | COC(=O)C[C@H](NC(=O)[C@@H](NC(=O)[C@@H](NC(=O)[C@@H](N)Cc1ccccc1)C(C)C)C(C)C)C(=O)N[C@@H](CC(=O)O)C(=O)N[C@@H](CC(C)C)C(=O)O (H-FVVD(OMe)DL-OH)
21 |  |  | CC(C)C[C@H](NC(=O)[C@H](CC(=O)O)NC(=O)[C@H](CC(N)=O)NC(=O)[C@@H](NC(=O)[C@@H](NC(=O)C(Cc1ccccc1)Cc1ccc(O)cc1)C(C)C)C(C)C)C(=O)O (stereo in doubt; form 1)
 | 1.5 | 9 | CC(C)C[C@H](NC(=O)[C@H](CC(=O)O)NC(=O)[C@H](CC(N)=O)NC(=O)[C@@H](NC(=O)[C@@H](NC(=O)C(Cc1ccccc1)Cc1ccc(O)cc1)C(C)C)C(C)C)C(=O)O (stereo in doubt; form 2) [listing 1 of 2 here]
6 |  |  | CC(C)C[C@H](NC(=O)[C@H](CC(=O)O)NC(=O)[C@H](CC(N)=O)NC(=O)[C@@H](NC(=O)[C@@H](NC(=O)C(Cc1ccccc1)Cc1ccc(O)cc1)C(C)C)C(C)C)C(=O)O (stereo in doubt; form 2) [listing 2 of 2 here]
